Experimental data as given in patent US10681909B2, “Herbicidal triazoles” (FMC Corporation, priority 2014, dated 2020).

Key:
corn = assay: Test E preemergence; format: in vivo, Zea mays; conditions: scale 0 to 100
Excerpt: (§1) Seeds of plant species selected from corn (Zea mays), soybean (Glycine max), lambsquarters (Chenopodium album), poinsettia, wild (wild poinsettia, Euphorbia heterophylla), pigweed, palmer (palmer pigweed, Amaranthus palmeri), waterhemp (common waterhemp, Amaranthus rudis), surinam grass (Brachiaria decumbens), crabgrass, large (large crabgrass, Digitaria sanguinalis), crabgrass, Brazilian (Brazilian crabgrass, Digitaria horizontalis), panicum, fall (fall panicum, Panicum dichotomiflorum), foxtail, giant (giant foxtail, Setaria faberii), foxtail, green (green foxtail, Setaria viridis), goosegrass (Eleusine indica), johnsongrass (Sorghum halepense), ragweed (common ragweed, Ambrosia elatior), barnyardgrass (Echinochloa crus-galli), sandbur (southern sandbur, Cenchrus echinatus), arrowleaf sida (Sida rhombifolia), ryegrass, Italian (Italian ryegrass, Lolium multiflorum), dayflower, VA (Virginia dayflower, Commelina virginica), field bindweed (Convolvulus arvensis), cocklebur (common cocklebur, Xanthium strumarium), morningglory (Ipomoea coccinea), nightshade (eastern black nightshade, Solanum ptycanthum), kochia (Kochia scoparia), nutsedge, yellow (yellow nutsedge, Cyperus esculentus), smartweed (ladysthumb smartweed, Polygonum persicaria), velvetleaf (Abutilon theophrasti), horseweed (Conyza canadensis), and beggarticks (hairy beggarticks, Bidens pilosa), were planted into a silt loam soil and treated preemergence with test chemicals formulated in a non-phytotoxic solvent mixture which included a surfactant.
(§2) At the same time, plants from these crop and weed species and also waterhemp_RES1, (ALS & Triazine resistant common waterhemp, Amaranthus rudis), and waterhemp_RES2, (ALS & HPPD resistant common waterhemp, Amaranthus rudis) were planted in pots containing Sunshine Redi-Earth® planting medium comprising spaghnum peat moss, vermiculite, starter nutrients and dolomitic limestone were treated with postemergence applications of test chemicals formulated in the same manner. Plants ranged in height from 2 to 18 cm for postemergence treatments (1- to 4-leaf stage). Treated plants and controls were maintained in a greenhouse for 14 to 21 d, after which time all species were compared to controls and visually evaluated. Plant response ratings, summarized in Table E, are based on a scale of 0 to 100 where 0 is no effect and 100 is complete control. A dash (-) response means no test result.

soybean = assay: Test E preemergence; format: in vivo, Glycine max; conditions: scale 0 to 100
Excerpt: as §1, §2

surinam grass = assay: Test E preemergence; format: in vivo, Brachiaria decumbens; conditions: scale 0 to 100
Excerpt: as §1, §2

crabgrass, large = assay: Test E preemergence; format: in vivo, Digitaria sanguinalis; conditions: scale 0 to 100
Excerpt: as §1, §2

crabgrass, Brazilian [1] = assay: Test E preemergence; format: in vivo, Digitaria horizontalis; conditions: Brazil, scale 0 to 100
Excerpt: as §1, §2

goosegrass = assay: Test E preemergence; format: in vivo, Eleusine indica; conditions: scale 0 to 100
Excerpt: as §1, §2

ragweed [2] = assay: Test E preemergence; format: in vivo, Ambrosia elatior; conditions: scale 0 to 100
Excerpt: as §1, §2

barnyardgrass [3] = assay: Test E preemergence; format: in vivo, Echinochloa crus-galli; conditions: scale 0 to 100
Excerpt: as §1, §2

dayflower, VA = assay: Test E preemergence; format: in vivo, Commelina virginica; conditions: scale 0 to 100
Excerpt: as §1, §2

morningglory = assay: Test E preemergence; format: in vivo, Ipomoea coccinea; conditions: scale 0 to 100
Excerpt: as §1, §2

kochia [4] = assay: Test E preemergence; format: in vivo, Kochia scoparia; conditions: scale 0 to 100
Excerpt: as §1, §2

beggarticks [5] = assay: Test E preemergence; format: in vivo, Bidens pilosa; conditions: scale 0 to 100
Excerpt: as §1, §2

pigweed, palmer = assay: Test E postemergence; format: in vivo, Amaranthus palmeri; conditions: scale 0 to 100
Excerpt: as §1, §2

crabgrass, Brazilian [6] = assay: Test E postemergence; format: in vivo, Digitaria horizontalis; conditions: Brazil, scale 0 to 100
Excerpt: as §1, §2

panicum, fall = assay: Test E postemergence; format: in vivo, Panicum dichotomiflorum; conditions: scale 0 to 100
Excerpt: as §1, §2

ragweed [7] = assay: Test E postemergence; format: in vivo, Ambrosia elatior; conditions: scale 0 to 100
Excerpt: as §1, §2

barnyardgrass [8] = assay: Test E postemergence; format: in vivo, Echinochloa crus-galli; conditions: scale 0 to 100
Excerpt: as §1, §2

sandbur = assay: Test E postemergence; format: in vivo, Cenchrus echinatus; conditions: scale 0 to 100
Excerpt: as §1, §2

kochia [9] = assay: Test E postemergence; format: in vivo, Kochia scoparia; conditions: scale 0 to 100
Excerpt: as §1, §2

beggarticks [10] = assay: Test E postemergence; format: in vivo, Bidens pilosa; conditions: scale 0 to 100
Excerpt: as §1, §2

In the case of `CCOc1nc(-c2ccccc2)nn1Cc1ccnc(C(F)(F)F)c1` [Compound 27], the Plant response rating (corn; 16 g ai/ha) is reported as 0, the Plant response rating (corn; 31 g ai/ha) is reported as 0 and the Plant response rating (corn; 62 g ai/ha) is reported as 25. It also gave a Plant response rating (corn; 125 g ai/ha) of 50, a Plant response rating (soybean; 16 g ai/ha) of 0 and a Plant response rating (soybean; 31 g ai/ha) of 0. The Plant response rating (soybean; 62 g ai/ha) was 0, the Plant response rating (soybean; 125 g ai/ha) was 15 and the Plant response rating (surinam grass; 16 g ai/ha) was 0. For the same compound, the Plant response rating (surinam grass; 31 g ai/ha) was 0, the Plant response rating (surinam grass; 62 g ai/ha) was 10 and the Plant response rating (surinam grass; 125 g ai/ha) was 15. For the same compound, the Plant response rating (crabgrass, large; 16 g ai/ha) was 98, the Plant response rating (crabgrass, large; 31 g ai/ha) was 100 and the Plant response rating (crabgrass, large; 62 g ai/ha) was 100. For the same compound, the Plant response rating (crabgrass, large; 125 g ai/ha) was 100, the Plant response rating (crabgrass, Brazilian [1]; 16 g ai/ha) was 90 and the Plant response rating (crabgrass, Brazilian [1]; 31 g ai/ha) was 100. It also gave a Plant response rating (crabgrass, Brazilian [1]; 62 g ai/ha) of 100, a Plant response rating (crabgrass, Brazilian [1]; 125 g ai/ha) of 100 and a Plant response rating (goosegrass; 16 g ai/ha) of 80. It also gave a Plant response rating (goosegrass; 31 g ai/ha) of 98, a Plant response rating (goosegrass; 62 g ai/ha) of 95 and a Plant response rating (goosegrass; 125 g ai/ha) of 100. For the same compound, the Plant response rating (ragweed [2]; 16 g ai/ha) was 50, the Plant response rating (ragweed [2]; 31 g ai/ha) was 35 and the Plant response rating (ragweed [2]; 62 g ai/ha) was 90. It also gave a Plant response rating (ragweed [2]; 125 g ai/ha) of 80, a Plant response rating (barnyardgrass [3]; 16 g ai/ha) of 10 and a Plant response rating (barnyardgrass [3]; 31 g ai/ha) of 25. For the same compound, the Plant response rating (barnyardgrass [3]; 62 g ai/ha) was 90, the Plant response rating (barnyardgrass [3]; 125 g ai/ha) was 95 and the Plant response rating (dayflower, VA; 16 g ai/ha) was 10. It also gave a Plant response rating (dayflower, VA; 31 g ai/ha) of 10, a Plant response rating (dayflower, VA; 62 g ai/ha) of 10 and a Plant response rating (dayflower, VA; 125 g ai/ha) of 50. For the same compound, the Plant response rating (morningglory; 16 g ai/ha) was 15, the Plant response rating (morningglory; 31 g ai/ha) was 25 and the Plant response rating (morningglory; 62 g ai/ha) was 35. It also gave a Plant response rating (morningglory; 125 g ai/ha) of 35, a Plant response rating (kochia [4]; 16 g ai/ha) of 65 and a Plant response rating (kochia [4]; 31 g ai/ha) of 90. It also gave a Plant response rating (kochia [4]; 62 g ai/ha) of 100, a Plant response rating (kochia [4]; 125 g ai/ha) of 100 and a Plant response rating (beggarticks [5]; 16 g ai/ha) of 0. For the same compound, the Plant response rating (beggarticks [5]; 31 g ai/ha) was 0, the Plant response rating (beggarticks [5]; 62 g ai/ha) was 0 and the Plant response rating (beggarticks [5]; 125 g ai/ha) was 0. For the same compound, the Plant response rating (pigweed, palmer; 16 g ai/ha) was 98, the Plant response rating (pigweed, palmer; 31 g ai/ha) was 98 and the Plant response rating (pigweed, palmer; 62 g ai/ha) was 100. For the same compound, the Plant response rating (pigweed, palmer; 125 g ai/ha) was 98, the Plant response rating (crabgrass, Brazilian [6]; 16 g ai/ha) was 20 and the Plant response rating (crabgrass, Brazilian [6]; 31 g ai/ha) was 20. It also gave a Plant response rating (crabgrass, Brazilian [6]; 62 g ai/ha) of 30, a Plant response rating (crabgrass, Brazilian [6]; 125 g ai/ha) of 40 and a Plant response rating (panicum, fall; 16 g ai/ha) of 10. The Plant response rating (panicum, fall; 31 g ai/ha) was 10, the Plant response rating (panicum, fall; 62 g ai/ha) was 15 and the Plant response rating (panicum, fall; 125 g ai/ha) was 30. It also gave a Plant response rating (ragweed [7]; 16 g ai/ha) of 50, a Plant response rating (ragweed [7]; 31 g ai/ha) of 50 and a Plant response rating (ragweed [7]; 62 g ai/ha) of 50. For the same compound, the Plant response rating (ragweed [7]; 125 g ai/ha) was 60, the Plant response rating (barnyardgrass [8]; 16 g ai/ha) was 15 and the Plant response rating (barnyardgrass [8]; 31 g ai/ha) was 20. It also gave a Plant response rating (barnyardgrass [8]; 62 g ai/ha) of 30, a Plant response rating (barnyardgrass [8]; 125 g ai/ha) of 50 and a Plant response rating (sandbur; 16 g ai/ha) of 0. The Plant response rating (sandbur; 31 g ai/ha) was 20, the Plant response rating (sandbur; 62 g ai/ha) was 30 and the Plant response rating (sandbur; 125 g ai/ha) was 30. It also gave a Plant response rating (kochia [9]; 16 g ai/ha) of 95, a Plant response rating (kochia [9]; 31 g ai/ha) of 100 and a Plant response rating (kochia [9]; 62 g ai/ha) of 95. It also gave a Plant response rating (kochia [9]; 125 g ai/ha) of 95, a Plant response rating (beggarticks [10]; 16 g ai/ha) of 40 and a Plant response rating (beggarticks [10]; 31 g ai/ha) of 50. For the same compound, the Plant response rating (beggarticks [10]; 62 g ai/ha) was 50 and the Plant response rating (beggarticks [10]; 125 g ai/ha) was 55.
